Laboratory results published in patent US20210205329A1 (The University of North Carolina at Chapel Hill, priority 2018, published 2021).
Values joined by “and” are separate entries in the source; they are usually repeats but may differ in a detail not shown here. Equal entries are not always repeated.

Tested on: TLR7 signal in P rat NAc
Experiment: TLR7 signal in P rat NAc after systemic 3α,5α-THP (immunoblot)
Assay type: in vivo
Settings: 15 mg/kg I.P.
Method: Neuropsychopharmacology 40(8): 1549-1559; Aurelian L, et al. (2016). Transl Psychiatry 6: e815). Systemic administration of 3α,5α-THP (15 mg/kg, I.P.) to naïve female P rats inhibited the expression of TLR7 (40%), pIRF7 (40%), and TRAF6 (40%) in P rat NAc, with no effect on IRF3. Similar results were obtained in a separate study of the male P rats.
Next, potential sex differences were directly examined in baseline or 3α,5α-THP inhibition of MCP-1 and pIRF7 expression in female vs. male P rat NAc (FIG. 9). […] Systemic administration of 3α,5α-THP (15 mg/kg, I.P.) to naïve female and male P rats inhibited the expression of MCP-1 (40% in female rat NAc; 25% in male rat NAc). Likewise, 3α,5α-THP administration to naïve female and male P rats inhibited the expression of pIRF7 to the same extent, (55% in female rat NAc; 55% in male rat NAc).

SMILES: CC(=O)[C@H]1CC[C@H]2[C@@H]3CC[C@H]4C[C@H](O)CC[C@]4(C)[C@H]3CC[C@]12C [3α,5α-THP, (3α,5α)3-hydroxypregnan-20-one]
- inhibition of TRAF6 (male P rats): 45%
- effect on IRF3 in NAc (naïve female P rats): no effect
- inhibition of TLR7 expression in NAc (naïve female P rats): 40%
- inhibition of TRAF6 expression in NAc (naïve female P rats): 40%
- inhibition of pIRF7 expression in NAc (naïve female P rats): 40% and 55%
- inhibition of pIRF7 expression in NAc (naïve male P rats): 55%
